From patent publication EP0422618A1, “Polysaccharides with antiphlogistic activity, method for obtaining them and pharmaceutical compositions containing the same” (LOMAPHARM Rudolf Lohmann GmbH KG Pharmazeutische Fabrik, priority 1989, dated 1991)

Test system: Carrageenan induzierten Rattenpfotenödem
Assay: Carrageenan-induced rat paw oedema test
Type: in vivo, Ratte
Conditions: 10 mg/kg i.v.
Source text: Die antiphlogistische Wirkung der erfindungsgemäßen Polysaccharide wurde im Carrageenan induzierten Rattenpfotenödemtest untersucht (Winter, C.A. et al., Proc. Soc. Exp. Biol. Med. 111, 544 (1962)).

SMILES: COc1ccc2c(c1)c(CC(=O)O)c(C)n2C(=O)c1ccc(Cl)cc1 [Indometacin]
- Hemmung des Rattenpfotenödems nach 8 Stunden: Indometacin 10 mg/kg i.v. 22,9%
